Reference: ChEMBL document CHEMBL1201862, “PubChem BioAssay data set” (2004)
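Following 48 hours of exposure in 96-well plates, responses at five concentrations were used to interpolate endpoints linearly. GI50: concentration for 50% inhibition of growth.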 Active and inactive are the calls of the source. Cut-off read from the data, not from the text of the source: active = GI50 up to about 1.1 µM and inactive = higher.

How the values were obtained:
Test in all cases: DTP human tumour cell line panel, 48 h
IGROV-1 = system: IGROV-1
U-251 = system: U-251
HOP-18 = system: HOP-18
HCC 2998 = system: HCC 2998
SR = system: SR
HT-29 = system: HT-29
HOP-92 = system: HOP-92
UACC-257 = system: UACC-257
OVCAR-4 = system: OVCAR-4
M19-MEL = system: M19-MEL
A498 = system: A498
HCT-116 = system: HCT-116
DMS-273 = system: DMS-273
SF-295 = system: SF-295
SNB-78 = system: SNB-78
LOX IMVI = system: LOX IMVI
OVCAR-8 = system: OVCAR-8
KM-20L2 = system: KM-20L2
LXFL 529 = system: LXFL 529
SF-539 = system: SF-539
COLO 205 = system: COLO 205
RXF 393 = system: RXF 393
SF-268 = system: SF-268
NCI-H522 = system: NCI-H522
NCI-H460 = system: NCI-H460
A549 = system: A549
SNB-19 = system: SNB-19
HCT-15 = system: HCT-15
NCI-H23 = system: NCI-H23
MOLT-4 = system: MOLT-4
CAKI-1 = system: CAKI-1
SN12C = system: SN12C
786-0 = system: 786-0
HOP-62 = system: HOP-62
OVCAR-5 = system: OVCAR-5
RXF 631 = system: RXF 631
CCRF-CEM = system: CCRF-CEM
NCI-H226 = system: NCI-H226
TK-10 = system: TK-10
SK-OV-3 = system: SK-OV-3
K562 = system: K562
XF498 = system: XF498
Malme-3M = system: Malme-3M
SK-MEL-2 = system: SK-MEL-2
KM12 = system: KM12
SK-MEL-28 = system: SK-MEL-28
ACHN = system: ACHN
SW-620 = system: SW-620
EKVX = system: EKVX
HL-60 = system: HL-60
SK-MEL-5 = system: SK-MEL-5
DLD-1 = system: DLD-1
DMS-114 = system: DMS-114
UO-31 = system: UO-31
RPMI-8226 = system: RPMI-8226
UACC-62 = system: UACC-62
SNB-75 = system: SNB-75
M14 = system: M14
DU-145 = system: DU-145
MDA-N = system: MDA-N
PC-3 = system: PC-3
MDA-MB-231 = system: MDA-MB-231
OVCAR-3 = system: OVCAR-3
Hs-578T = system: Hs-578T
BT-549 = system: BT-549
T47D = system: T47D
MDA-MB-435 = system: MDA-MB-435
NCI/ADR-RES = system: NCI/ADR-RES

CCOC(=O)C1(C)C2=CC=C(O2)C(C)(C)C2=CC=C(O2)C(C)(C)C2=CC=C(O2)C(C)(C)C2=CC=C1O2
GI50 (IGROV-1): > 100 µM (inactive) | GI50 (U-251): 48.3 µM (inactive) | GI50 (HOP-18): > 100 µM (inactive) | GI50 (HCC 2998): > 100 µM (inactive) | GI50 (SR): 68.1 µM (inactive) | GI50 (HT-29): > 100 µM (inactive) | GI50 (HOP-92): 36.5 µM (inactive) | GI50 (UACC-257): > 100 µM (inactive) | GI50 (OVCAR-4): 3.44 µM (inactive) | GI50 (M19-MEL): > 100 µM (inactive) | GI50 (A498): > 100 µM (inactive) | GI50 (HCT-116): 46.9 µM (inactive) | GI50 (DMS-273): > 100 µM (inactive) | GI50 (SF-295): > 100 µM (inactive) | GI50 (SNB-78): > 100 µM (inactive) | GI50 (LOX IMVI): > 100 µM (inactive) | GI50 (OVCAR-8): 76.2 µM (inactive) | GI50 (KM-20L2): > 100 µM (inactive) | GI50 (LXFL 529): > 100 µM (inactive) | GI50 (SF-539): > 100 µM (inactive) | GI50 (COLO 205): 42.3 µM (inactive) | GI50 (RXF 393): > 100 µM (inactive) | GI50 (SF-268): > 100 µM (inactive) | GI50 (NCI-H522): > 100 µM (inactive) | GI50 (NCI-H460): > 100 µM (inactive) | GI50 (A549): 42.6 µM (inactive) | GI50 (SNB-19): > 100 µM (inactive) | GI50 (HCT-15): > 100 µM | GI50 (NCI-H23): > 100 µM (inactive) | GI50 (MOLT-4): 53.5 µM (inactive) | GI50 (CAKI-1): > 100 µM (inactive) | GI50 (SN12C): > 100 µM (inactive) | GI50 (786-0): > 100 µM (inactive) | GI50 (HOP-62): > 100 µM (inactive) | GI50 (OVCAR-5): > 100 µM (inactive) | GI50 (RXF 631): > 100 µM (inactive) | GI50 (CCRF-CEM): 64.3 µM (inactive) | GI50 (NCI-H226): > 100 µM (inactive) | GI50 (TK-10): > 100 µM (inactive) | GI50 (SK-OV-3): > 100 µM (inactive) | GI50 (K562): > 100 µM (inactive) | GI50 (XF498): > 100 µM (inactive) | GI50 (Malme-3M): > 100 µM (inactive) | GI50 (SK-MEL-2): > 100 µM (inactive) | GI50 (KM12): > 100 µM (inactive) | GI50 (SK-MEL-28): > 100 µM (inactive) | GI50 (ACHN): > 100 µM (inactive) | GI50 (SW-620): > 100 µM (inactive) | GI50 (EKVX): > 100 µM (inactive) | GI50 (HL-60): 55.3 µM (inactive)

C[Si](C)(C)C(CCCCSc1ccccc1)(Sc1ccccc1)Sc1ccccc1
GI50 (U-251): 85.5 µM (inactive) | GI50 (HCC 2998): > 100 µM (inactive) | GI50 (SR): > 100 µM (inactive) | GI50 (HOP-92): 73.6 µM (inactive) | GI50 (UACC-257): > 100 µM (inactive) | GI50 (OVCAR-4): > 100 µM (inactive) | GI50 (M19-MEL): > 100 µM (inactive) | GI50 (A498): > 100 µM (inactive) | GI50 (HCT-116): > 100 µM (inactive) | GI50 (DMS-273): > 100 µM (inactive) | GI50 (SF-295): > 100 µM (inactive) | GI50 (SNB-78): > 100 µM (inactive) | GI50 (LOX IMVI): > 100 µM (inactive) | GI50 (OVCAR-8): > 100 µM (inactive) | GI50 (KM-20L2): > 10 µM (inactive) | GI50 (LXFL 529): 78.2 µM (inactive) | GI50 (SF-539): > 100 µM (inactive) | GI50 (COLO 205): > 100 µM (inactive) | GI50 (SK-MEL-5): > 100 µM (inactive) | GI50 (RXF 393): > 100 µM (inactive) | GI50 (SF-268): > 100 µM (inactive) | GI50 (NCI-H460): > 100 µM (inactive) | GI50 (A549): > 100 µM (inactive) | GI50 (DLD-1): > 100 µM (inactive) | GI50 (SNB-19): > 100 µM (inactive) | GI50 (HCT-15): > 100 µM | GI50 (NCI-H23): 68.1 µM (inactive) | GI50 (MOLT-4): > 100 µM (inactive) | GI50 (CAKI-1): > 100 µM (inactive) | GI50 (SN12C): > 100 µM (inactive) | GI50 (786-0): > 100 µM (inactive) | GI50 (DMS-114): > 100 µM (inactive) | GI50 (RXF 631): > 100 µM (inactive) | GI50 (CCRF-CEM): > 100 µM (inactive) | GI50 (TK-10): > 100 µM (inactive) | GI50 (SK-OV-3): > 100 µM (inactive) | GI50 (K562): > 100 µM (inactive) | GI50 (XF498): > 100 µM (inactive) | GI50 (UO-31): > 100 µM (inactive) | GI50 (SK-MEL-2): > 100 µM (inactive) | GI50 (KM12): > 100 µM (inactive) | GI50 (SK-MEL-28): > 100 µM (inactive) | GI50 (ACHN): > 100 µM (inactive) | GI50 (RPMI-8226): > 100 µM (inactive) | GI50 (SW-620): > 100 µM (inactive) | GI50 (UACC-62): 36.1 µM (inactive) | GI50 (EKVX): > 100 µM (inactive) | GI50 (SNB-75): > 100 µM (inactive) | GI50 (HL-60): > 100 µM (inactive)

O=c1[nH]c(=O)n([C@@H]2O[C@H](CO)[C@@H](O)[C@H]2O)cc1F [5-FLUOROURIDINE]
GI50 (IGROV-1): 0.0803 µM (active) | GI50 (U-251): 0.0462 µM (active) | GI50 (HCC 2998): 0.0311 µM (active) | GI50 (SR): 0.0473 µM (active) | GI50 (HT-29): 0.0407 µM (active) | GI50 (M14): 0.222 µM (active) | GI50 (DU-145): 0.151 µM (active) | GI50 (OVCAR-4): 0.521 µM (active) | GI50 (M19-MEL): 0.481 µM (active) | GI50 (MDA-N): 0.025 µM (active) | GI50 (A498): 0.308 µM (active) | GI50 (HCT-116): 0.0167 µM (active) | GI50 (DMS-273): 0.312 µM (active) | GI50 (SF-295): 0.145 µM (active) | GI50 (SNB-78): 0.211 µM (active) | GI50 (PC-3): 0.164 µM (active) | GI50 (LOX IMVI): 0.0556 µM (active) | GI50 (MDA-MB-231): 1.63 µM (inactive) | GI50 (OVCAR-3): 0.223 µM (active) | GI50 (Hs-578T): 2.01 µM (inactive) | GI50 (OVCAR-8): 0.056 µM (active) | GI50 (KM-20L2): 0.594 µM (active) | GI50 (LXFL 529): 0.15 µM (active) | GI50 (SF-539): 0.0375 µM (active) | GI50 (COLO 205): 0.0787 µM (active) | GI50 (BT-549): 0.459 µM (active) | GI50 (SK-MEL-5): 0.344 µM (active) | GI50 (RXF 393): 0.221 µM (active) | GI50 (T47D): 0.114 µM (active) | GI50 (SF-268): 0.0716 µM (active) | GI50 (MDA-MB-435): 0.0333 µM (active) | GI50 (NCI-H460): 0.0159 µM (active) | GI50 (A549): 0.0179 µM (active) | GI50 (DLD-1): 0.0861 µM (active) | GI50 (SNB-19): 0.0579 µM (active) | GI50 (HCT-15): 0.0367 µM | GI50 (NCI-H23): 0.229 µM (active) | GI50 (MOLT-4): 0.0861 µM (active) | GI50 (CAKI-1): 0.0483 µM (active) | GI50 (NCI/ADR-RES): 0.0792 µM (active) | GI50 (SN12C): 0.0603 µM (active) | GI50 (786-0): 0.0408 µM (active) | GI50 (DMS-114): 10.4 µM (inactive) | GI50 (HOP-62): 0.171 µM (active) | GI50 (OVCAR-5): 0.718 µM (active) | GI50 (RXF 631): 1.05 µM (active) | GI50 (CCRF-CEM): 0.057 µM (active) | GI50 (NCI-H226): 0.154 µM (active) | GI50 (TK-10): 5.74 µM (inactive) | GI50 (SK-OV-3): 5.66 µM (inactive) | GI50 (K562): 0.0212 µM (active) | GI50 (XF498): 1.92 µM (inactive) | GI50 (Malme-3M): 0.0678 µM (active) | GI50 (UO-31): 0.0792 µM (active) | GI50 (SK-MEL-2): 2.32 µM (inactive) | GI50 (KM12): 0.0671 µM (active) | GI50 (SK-MEL-28): 0.805 µM (active) | GI50 (ACHN): 0.0307 µM (active) | GI50 (RPMI-8226): 0.126 µM (active) | GI50 (SW-620): 0.0222 µM (active) | GI50 (UACC-62): 0.169 µM (active) | GI50 (EKVX): 37.2 µM (inactive) | GI50 (SNB-75): 2.25 µM (inactive) | GI50 (HL-60): 0.0867 µM (active)
